Values of other authors in patent US6395294B1, “Method of visualization of the vitreous during vitrectomy” (priority 2000, dated 2002).
Like-named read-outs stand apart in the source and are kept apart here.

Tests used:
[1] = intravitreal injections
[2] = intravenous
[3] = primate eyes
[4] = tested on: blood retinal barrier; details: intravitreal, experimental
[5] = rabbit eyes
[6] = intravitreal, experimental
[7] = human eyes

C[C@@H]1C[C@H]2[C@@H]3CCC4=CC(=O)C=C[C@]4(C)[C@@]3(F)[C@@H](O)C[C@]2(C)[C@@]1(O)C(=O)COP(=O)(O)O [dexamethasone sodium phosphate]
retinal toxicity (dose of 2 mg): did not show retinal toxicity

C[C@]12CCC(=O)C=C1CC[C@@H]1[C@@H]2[C@@H](O)C[C@@]2(C)[C@H]1CC[C@]2(O)C(=O)CO [hydrocortisone]
aqueous formation rate and outflow facility compared with saline injection [1]: no difference
intraocular pressure ([1]; both drug and saline groups, because of a decrease in outflow facility): increased intraocular pressure

C[C@H]1C[C@@H]2[C@H]([C@@H](O)C[C@@]3(C)[C@H]2CC[C@]3(O)C(=O)COC(=O)CCC(=O)[O-])[C@@]2(C)C=CC(=O)C=C12.[Na+] [solumedrol, methylprednisolone sodium succinate]
effect on diabetic eyes with rubeosis iridis [2]: quiets diabetic eyes with rubeosis iridis

CC1(C)O[C@@H]2C[C@H]3[C@@H]4CCC5=CC(=O)C=C[C@]5(C)[C@@]4(F)[C@@H](O)C[C@]3(C)[C@]2(C(=O)CO)O1 [triamcinolone, triamcinolone acetonide]
tolerance in the eye [3]: well tolerated
breakdown of the blood retinal barrier [4]: reduce the breakdown of the blood retinal barrier
tolerance in the eye [5]: well tolerated
angiogenesis [6]: inhibit angiogenesis
incidence of proliferative vitreoretinopathy and subsequent retinal detachment [6]: reduce the incidence of proliferative vitreoretinopathy and subsequent retinal detachment
preretinal and optic disc neovascularization [6]: inhibit preretinal and optic disc neovascularization
retinal toxicity (vitrectomized and nonvitrectomized eyes, dosage of 2-4 mg): no retinal toxicity
tolerance in the eye [7]: well tolerated
